Test results published in patent US8802597B2, “Herbicidal pyrimidines” (E I du Pont de Nemours and Company, priority 2003, dated 2014).

Columns and labels:
Assay in all cases: Test C pre/postemergence
Assay type in all cases: in vivo
[1] = system: Surinam grass (Brachiaria decumbens); conditions: for Surinam Grass plant response rating: scale 0 to 100 (0 no effect, 100 complete control)
Method in brief: (§1)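 Rating scale 0–100: 0 means no effect, 100 complete control; taken visually 12 to 14 days post-treatment versus controls. Pre- and postemergence greenhouse applications, postemergence at 1- to 4-leaf stage, non-phytotoxic solvent with surfactant as carrier.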

[2] = system: bermudagrass (Cynodon dactylon); conditions: for Bermudagrass plant response rating: scale 0 to 100 (0 no effect, 100 complete control); for Plant response rating, Bermudagrass: scale 0 to 100
Method in brief: as §1

[3] = system: cocklebur (Xanthium strumarium); conditions: for Cocklebur plant response rating: scale 0 to 100 (0 no effect, 100 complete control)
Method in brief: as §1

[4] = system: common (oilseed) sunflower (Helianthus annuus); conditions: Preemergence
Method in brief: as §1

[5] = system: common ragweed (Ambrosia elatior); conditions: for Ragweed plant response rating: scale 0 to 100 (0 no effect, 100 complete control)
Method in brief: as §1

[6] = system: corn (Zea mays); conditions: for Corn plant response rating: scale 0 to 100 (0 no effect, 100 complete control)
Method in brief: as §1

[7] = system: eastern black nightshade (Solanum ptycanthum); conditions: Preemergence
Method in brief: as §1

[8] = system: johnsongrass (Sorghum halepense)
Method in brief: as §1

[9] = system: kochia (Kochia scoparia); conditions: for Kochia plant response rating: scale 0 to 100 (0 no effect, 100 complete control); for Plant response rating, Kochia: scale 0 to 100
Method in brief: as §1

[10] = system: morningglory (Ipomoea coccinea); conditions: for Morningglory plant response rating: scale 0 to 100 (0 no effect, 100 complete control)
Method in brief: as §1

[11] = system: pigweed (Amaranthus retroflexus); conditions: for Pigweed plant response rating: scale 0 to 100 (0 no effect, 100 complete control)
Method in brief: as §1

[12] = system: woolly cupgrass (Eriochloa villosa); conditions: for Cupgrass, Woolly plant response rating: scale 0 to 100 (0 no effect, 100 complete control)
Method in brief: as §1

[13] = Postemergence, 250 g ai/ha, scale 0 to 100
[14] = Postemergence, 500 g ai/ha, scale 0 to 100
[15] = Preemergence, 62 g ai/ha, scale 0 to 100, 0 no effect, 100 complete control
[16] = Preemergence, 125 g ai/ha, scale 0 to 100
[17] = Preemergence, 250 g ai/ha, scale 0 to 100
[18] = Preemergence, 500 g ai/ha, scale 0 to 100
[19] = 62 g ai/ha, scale 0 to 100, 0 no effect, 100 complete control

CN(C)N=Cc1nc(C2CC2)nc(N)c1Br [Compound 50]
Surinam Grass plant response rating ([1]; Postemergence, 62 g ai/ha): 0
Surinam Grass plant response rating ([1]; Postemergence, 125 g ai/ha): 0
Plant response rating, Surinam Grass [1, 13]: 0
Plant response rating, Surinam Grass [1, 14]: 60
Plant response rating, Surinam Grass [1, 15]: 0
Plant response rating, Surinam Grass [1, 16]: 15
Plant response rating, Surinam Grass [1, 17]: 65
Plant response rating, Surinam Grass [1, 18]: 85
Bermudagrass plant response rating ([2]; Postemergence, 62 g ai/ha): 50
Bermudagrass plant response rating ([2]; Postemergence, 125 g ai/ha): 75
Plant response rating, Bermudagrass ([2]; Postemergence, 250 g ai/ha): 90
Plant response rating, Bermudagrass ([2]; Postemergence, 500 g ai/ha): 95
Plant response rating, Bermudagrass ([2]; Preemergence, 125 g ai/ha): 0
Plant response rating, Bermudagrass ([2]; Preemergence, 250 g ai/ha): 0
Plant response rating, Bermudagrass ([2]; Preemergence, 500 g ai/ha): 95
Cocklebur plant response rating ([3]; Postemergence, 62 g ai/ha): 40
Cocklebur plant response rating ([3]; Postemergence, 125 g ai/ha): 40
Plant response rating, Cocklebur [3, 13]: 65
Plant response rating, Cocklebur [3, 14]: 90
Plant response rating, Cocklebur [3, 15]: 70
Plant response rating, Cocklebur [3, 16]: 85
Plant response rating, Cocklebur [3, 17]: 95
Plant response rating, Cocklebur [3, 18]: 95
Plant response rating, Sunflower [4, 19]: 15
Plant response rating, Sunflower ([4]; 125 g ai/ha, scale 0 to 100): 55
Plant response rating, Sunflower ([4]; 250 g ai/ha, scale 0 to 100): 95
Plant response rating, Sunflower ([4]; 500 g ai/ha, scale 0 to 100): 100
Ragweed plant response rating ([5]; Postemergence, 62 g ai/ha): 20
Ragweed plant response rating ([5]; Postemergence, 125 g ai/ha): 45
Plant response rating, Ragweed [5, 13]: 45
Plant response rating, Ragweed [5, 14]: 80
Plant response rating, Ragweed [5, 15]: 70
Plant response rating, Ragweed [5, 16]: 85
Plant response rating, Ragweed [5, 17]: 95
Plant response rating, Ragweed [5, 18]: 100
Corn plant response rating ([6]; Postemergence, 62 g ai/ha): 0
Corn plant response rating ([6]; Postemergence, 125 g ai/ha): 0
Plant response rating, Corn [6, 13]: 60
Plant response rating, Corn [6, 14]: 65
Plant response rating, Corn [6, 15]: 10
Plant response rating, Corn [6, 16]: 10
Plant response rating, Corn [6, 17]: 20
Plant response rating, Corn [6, 18]: 45
Plant response rating, Nightshade [7, 19]: 95
Plant response rating, Nightshade ([7]; 125 g ai/ha, scale 0 to 100): 100
Plant response rating, Nightshade ([7]; 250 g ai/ha, scale 0 to 100): 100
Plant response rating, Nightshade ([7]; 500 g ai/ha, scale 0 to 100): 100
Johnsongrass plant response rating ([8]; Postemergence, 62 g ai/ha, scale 0 to 100 (0 no effect, 100 complete control)): 0
Plant response rating, Johnsongrass [8, 14]: 60
Plant response rating, Johnsongrass [8, 15]: 0
Plant response rating, Johnsongrass [8, 16]: 55
Plant response rating, Johnsongrass [8, 17]: 65
Plant response rating, Johnsongrass [8, 18]: 85
Kochia plant response rating ([9]; Postemergence, 62 g ai/ha): 20
Kochia plant response rating ([9]; Postemergence, 125 g ai/ha): 55
Plant response rating, Kochia ([9]; Postemergence, 250 g ai/ha): 65
Plant response rating, Kochia ([9]; Postemergence, 500 g ai/ha): 95
Plant response rating, Kochia ([9]; Preemergence, 125 g ai/ha): 0
Plant response rating, Kochia ([9]; Preemergence, 250 g ai/ha): 20
Plant response rating, Kochia ([9]; Preemergence, 500 g ai/ha): 90
Morningglory plant response rating ([10]; Postemergence, 62 g ai/ha): 65
Morningglory plant response rating ([10]; Postemergence, 125 g ai/ha): 80
Plant response rating, Morningglory [10, 13]: 85
Plant response rating, Morningglory [10, 14]: 95
Plant response rating, Morningglory [10, 15]: 80
Plant response rating, Morningglory [10, 16]: 95
Plant response rating, Morningglory [10, 17]: 95
Plant response rating, Morningglory [10, 18]: 100
Pigweed plant response rating ([11]; Postemergence, 62 g ai/ha): 75
Pigweed plant response rating ([11]; Postemergence, 125 g ai/ha): 80
Plant response rating, Pigweed [11, 13]: 85
Plant response rating, Pigweed [11, 14]: 95
Plant response rating, Pigweed [11, 15]: 75
Plant response rating, Pigweed [11, 16]: 90
Plant response rating, Pigweed [11, 17]: 95
Plant response rating, Pigweed [11, 18]: 100
Cupgrass, Woolly plant response rating ([12]; Postemergence, 62 g ai/ha): 0
Cupgrass, Woolly plant response rating ([12]; Postemergence, 125 g ai/ha): 0
Plant response rating, Cupgrass, Woolly [12, 13]: 15
Plant response rating, Cupgrass, Woolly [12, 14]: 30
Plant response rating, Cupgrass, Woolly [12, 15]: 0
Plant response rating, Cupgrass, Woolly [12, 16]: 0
Plant response rating, Cupgrass, Woolly [12, 17]: 0
Plant response rating, Cupgrass, Woolly [12, 18]: 40
